Numbers after ± are expanded uncertainties.
Assay: xn = mol fraction of the nth substance listed
Conditions: Liquid, vibrating tube

C1CCOC1 [tetrahydrofuran] + O
mass density [kg/m3]
Conditions | 78.5 kPa | 100.7 kPa
293.24 K, x2 = 0.3407 | 907.81 ± 2 | 907.93 ± 2
293.24 K, x2 = 0.988 | 995.8 ± 2 | 995.84 ± 2
293.25 K, x2 = 0.9826 | 994.97 ± 2 | 994.99 ± 2
293.25 K, x2 = 0.9921 | 996.53 ± 2 | 996.6 ± 2
293.26 K, x2 = 0.0208 | 888.12 ± 2 | 888.29 ± 2
293.26 K, x2 = 0.0404 | 889.02 ± 2 | 889.18 ± 2
293.26 K, x2 = 0.0872 | 892.05 ± 2 | 892.21 ± 2
293.26 K, x2 = 0.9418 | 990.31 ± 2 | 990.26 ± 2
293.26 K, x2 = 0.9519 | 991.46 ± 2 | 991.41 ± 2
293.26 K, x2 = 0.9573 | 992.11 ± 2 | 992.05 ± 2
293.26 K, x2 = 0.9709 | 993.71 ± 2 | 993.65 ± 2
293.26 K, x2 = 0.9723 | 993.83 ± 2 | 993.77 ± 2
293.27 K, x2 = 0.0269 | 888.46 ± 2 | 888.63 ± 2
293.27 K, x2 = 0.0429 | 889.18 ± 2 | 889.35 ± 2
293.27 K, x2 = 0.0593 | 890.14 ± 2 | 890.31 ± 2
293.27 K, x2 = 0.6092 | 934.46 ± 2 | 934.53 ± 2
293.28 K, x2 = 0.8857 | 981.21 ± 2 | 981.18 ± 2
298.21 K, x2 = 0.3407 | 902.44 ± 2 | 902.65 ± 2
298.22 K, x2 = 0.0872 | 886.71 ± 2 | 886.95 ± 2
298.22 K, x2 = 0.988 | 994.42 ± 2 | 994.44 ± 2
298.22 K, x2 = 0.9921 | 995.23 ± 2 | 995.24 ± 2
298.23 K, x2 = 0.0269 | 883.01 ± 2 | 883.22 ± 2
298.23 K, x2 = 0.9418 | 987.77 ± 2 | 987.8 ± 2
298.23 K, x2 = 0.9723 | 992.08 ± 2 | 992.11 ± 2
298.23 K, x2 = 0.9826 | 993.47 ± 2 | 993.49 ± 2
298.24 K, x2 = 0.0208 | 882.73 ± 2 | 882.93 ± 2
298.24 K, x2 = 0.0593 | 884.65 ± 2 | 884.9 ± 2
298.24 K, x2 = 0.9573 | 989.99 ± 2 | 990.02 ± 2
298.24 K, x2 = 0.9709 | 991.93 ± 2 | 991.95 ± 2
298.25 K, x2 = 0.0429 | 883.9 ± 2 | 883.99 ± 2
298.25 K, x2 = 0.6092 | 929.43 ± 2 | 929.58 ± 2
298.25 K, x2 = 0.9519 | 989.15 ± 2 | 989.18 ± 2
298.26 K, x2 = 0.8857 | 977.6 ± 2 | 977.65 ± 2
298.29 K, x2 = 0.0404 | 883.74 ± 2 | 883.83 ± 2
303.07 K, x2 = 0.3407 | 897.21 ± 2 | 897.4 ± 2
303.09 K, x2 = 0.9418 | 985.17 ± 2 | 985.19 ± 2
303.1 K, x2 = 0.0269 | 877.63 ± 2 | 877.86 ± 2
303.1 K, x2 = 0.0872 | 881.49 ± 2 | 881.71 ± 2
303.1 K, x2 = 0.9519 | 986.82 ± 2 | 986.81 ± 2
303.1 K, x2 = 0.988 | 993 ± 2 | 992.98 ± 2
303.1 K, x2 = 0.9921 | 993.8 ± 2 | 993.78 ± 2
303.11 K, x2 = 0.0404 | 878.23 ± 2 | –
303.11 K, x2 = 0.0593 | 879.35 ± 2 | –
303.11 K, x2 = 0.9573 | 987.79 ± 2 | –

From the NIST ThermoML archive (doi:10.1016/j.jct.2012.08.033)
